Data from ChEMBL document CHEMBL5303304, “EUbOPEN Chemogenomics Library - IncuCyte” (2023).

Columns and labels:
Format in all cases: toxicity, cell-based
U2OS = assay: Incucyte cell viability with U2OS; settings: human, 10 µM, compound concentration 10 uM
Fibroblast = assay: Incucyte cell viability with human fibroblast; settings: 10 µM, compound concentration 10 uM
HEK-293T = assay: Incucyte cell viability with HEK293T; settings: human, 10 µM, compound concentration 10 uM
Also: unitless GR value; below 1 slowed growth and below 0 cell loss.

| SMILES | Growth Rate (U2OS; 6 h, replicate number 1) | Growth Rate (U2OS; 12 h, replicate number 2) | Growth Rate (U2OS; 18 h, replicate number 2) | Growth Rate (U2OS; 24 h, replicate number 1) | Growth Rate (U2OS; 24 h, replicate number 2) | Growth Rate (Fibroblast; 0 h, replicate number 2) | Growth Rate (Fibroblast; 6 h, replicate number 1) | Growth Rate (Fibroblast; 6 h, replicate number 2) | Growth Rate (Fibroblast; 18 h, replicate number 1) | Growth Rate (Fibroblast; 18 h, replicate number 2) | Growth Rate (Fibroblast; 24 h, replicate number 1) | Growth Rate (HEK-293T; 0 h, replicate number 1) | Growth Rate (U2OS; 6 h, replicate number 2) | Growth Rate (U2OS; 18 h, replicate number 1) | Growth Rate (HEK-293T; 0 h, replicate number 2) | Growth Rate (HEK-293T; 6 h, replicate number 1) | Growth Rate (HEK-293T; 12 h, replicate number 2) | Growth Rate (HEK-293T; 18 h, replicate number 2) | Growth Rate (HEK-293T; 24 h, replicate number 2) | Growth Rate (Fibroblast; 12 h, replicate number 2) | other results |
| --- | --- | --- | --- | --- | --- | --- | --- | --- | --- | --- | --- | --- | --- | --- | --- | --- | --- | --- | --- | --- | --- |
| CN(C1CCc2c(c3ccccc3n2CC(=O)O)C1)S(=O)(=O)c1ccc(F)cc1 (configuration not stated) | 0.61 | 0.9 | 0.93 | 0.87 | 0.92 | 0.14 | 0.47 | 0.23 | 0.85 | 0.96 | 0.96 | 0.38 |  |  |  |  |  |  |  |  | Growth Rate (U2OS; 0 h, replicate number 1): 0.71; Growth Rate (U2OS; 0 h, replicate number 2): 0.7; Growth Rate (Fibroblast; 0 h, replicate number 1): -0.98 |
| O=C1NC(Nc2ccccc2)=N/C1=C\c1ccc2c(c1)OCO2 |  | 0.39 | 0.66 | 0.95 | 0.66 | -0.92 | -0.96 |  |  |  |  | 0.4 | 0.78 | 0.85 | 0.1 | 0.83 | 0.19 | 0.47 | 0.33 |  | Growth Rate (HEK-293T; 6 h, replicate number 2): 0; Growth Rate (HEK-293T; 12 h, replicate number 1): 0.37; Growth Rate (HEK-293T; 18 h, replicate number 1): 0.43; Growth Rate (HEK-293T; 24 h, replicate number 1): 0.56 |
| COc1ccc(-n2c(C)c([N+](=O)[O-])c3ccc(O)cc32)cc1 |  | 0.65 | 0.61 | 0.91 | 0.77 | 0.13 |  |  | -0.35 |  |  | 0.26 |  | 0.88 | -0.46 |  |  |  |  |  |  |
| Cc1csc(S(=O)(=O)N(CC(C)C)c2cc3c(cc2OCc2ccc(C(=O)O)cc2)CCC3)n1 |  | 0.88 | 0.83 | 0.99 | 0.86 | -0.95 | 0.68 | 0.06 |  |  |  | -0.23 | 0.87 | 0.99 | -0.11 |  |  |  |  | 0.69 |  |
| COc1cc(C(=O)NCCOCCOCCOCC(=O)N[C@H](C(=O)N2C[C@@H](O)C[C@H]2C(=O)NCc2ccc(-c3scnc3C)cc2)C(C)(C)C)ccc1Nc1ncc(C(F)(F)F)c(Oc2cccc3c2C(=O)CC3)n1 |  |  |  |  | 0.94 | 0.86 |  |  |  |  |  | -1 |  |  |  |  |  |  |  |  | Growth Rate (U2OS; 0 h, replicate number 2): 0.1 |
| O=C1c2c(Br)c(Br)c(Br)c(Br)c2C(=O)N1c1ncc[nH]1 | 0.7 | 0.88 | 0.8 |  | 0.85 |  |  | -0.34 | 0.49 | 1 |  | 0.6 | 0.25 |  | 0.63 |  | 0.57 | 0.74 | 0.78 | 0.46 | Growth Rate (U2OS; 0 h, replicate number 1): 0.58; Growth Rate (Fibroblast; 0 h, replicate number 1): 0.94; Growth Rate (Fibroblast; 12 h, replicate number 1): -0.93; Growth Rate (HEK-293T; 6 h, replicate number 2): 0.37 |
| Cc1ncsc1-c1ccc(CNC(=O)[C@@H]2C[C@H](O)CN2C(=O)[C@@H](NC(=O)C2(F)CC2)C(C)(C)C)c(OCCOc2ccc(CN3CCN(c4cc(-c5ccccc5O)nnc4N)CC3)cc2)c1 |  |  |  | 0.98 |  | 0.56 |  |  |  |  |  | -0.03 |  |  | -0.99 |  |  |  |  |  |  |
| COc1ccc(Br)cc1S(=O)(=O)NC(=O)/C=C/c1cc(Cl)ccc1Cc1ccc2ccccc2c1 |  |  | 0.86 |  |  | -0.66 | 0.77 | -0.77 | 0.99 | 0.56 | 0.91 | 0.03 |  |  | 0.17 |  |  | 0.99 | 0.94 | 0.22 | Growth Rate (Fibroblast; 12 h, replicate number 1): 0.99; Growth Rate (Fibroblast; 24 h, replicate number 2): 0.39 |
| CCCCC[C@@](C)(O)/C=C/[C@H]1C(=O)CC(O)C1C/C=C\CCCC(=O)O (some centres not stated) | 0.49 |  |  | 0.94 | 1 |  |  | -0.92 |  | 0.57 |  | -0.27 |  |  | 0.17 |  | 0.96 |  |  | 0.2 | Growth Rate (Fibroblast; 12 h, replicate number 1): 0.71; Growth Rate (Fibroblast; 24 h, replicate number 2): 0.71 |
| O=C(Nc1ccccc1C(=O)O)c1cc(S(=O)(=O)c2ccccc2)ccc1Cl |  | 0.55 | 0.65 | 0.79 | 0.8 | -0.73 |  |  |  |  |  | -0.5 |  | 0.96 | -0.73 | 0.7 | 0.88 | 0.41 | 0.34 |  | Growth Rate (U2OS; 0 h, replicate number 2): 0.97; Growth Rate (HEK-293T; 12 h, replicate number 1): 0.52; Growth Rate (HEK-293T; 18 h, replicate number 1): 0.3; Growth Rate (HEK-293T; 24 h, replicate number 1): 0.24 |
| CC(C(=O)Nc1cc(C#N)ccc1CCCC(=O)O)c1ccc(F)c2ccccc12 (configuration not stated) | 0.47 |  |  | 0.78 |  | -0.98 |  |  |  |  |  | 0.5 |  | 0.92 | 0.28 |  |  |  |  |  | Growth Rate (U2OS; 0 h, replicate number 1): 0; Growth Rate (U2OS; 12 h, replicate number 1): 0.72; Growth Rate (Fibroblast; 24 h, replicate number 2): 0.93 |
| O=C(O)CCCCCC[C@@H]1C(=O)NC(=O)N1CCC(O)C1CCCCC1 (some centres not stated) | 0.54 | 0.93 | 0.87 |  | 0.92 | 0.52 | -0.07 |  | 0.69 |  | 0.75 | -0.07 | 0.99 |  | 0.52 |  |  |  |  |  | Growth Rate (U2OS; 0 h, replicate number 1): 0.14; Growth Rate (Fibroblast; 0 h, replicate number 1): -0.99; Growth Rate (Fibroblast; 12 h, replicate number 1): 0.61 |
| CC(C)(C)NC(=O)c1cncn1C1CCN(c2ccc(-c3nnc(C(F)(F)F)o3)cn2)CC1 | -0.4 | 0.34 | 0.46 | 0.32 | 0.6 |  | 0.1 | -0.99 | -0.2 | -0.39 | -0.13 | -0.46 | 0 | 0.27 | -0.33 | 0.35 | -0.22 | -0.09 | 0.08 | -0.49 | Growth Rate (U2OS; 0 h, replicate number 1): -0.02; Growth Rate (U2OS; 0 h, replicate number 2): 0.52; Growth Rate (U2OS; 12 h, replicate number 1): -0.09; Growth Rate (Fibroblast; 0 h, replicate number 1): -1; Growth Rate (Fibroblast; 12 h, replicate number 1): -0.09; Growth Rate (Fibroblast; 24 h, replicate number 2): -0.11; Growth Rate (HEK-293T; 6 h, replicate number 2): -0.15; Growth Rate (HEK-293T; 12 h, replicate number 1): 0.06; Growth Rate (HEK-293T; 18 h, replicate number 1): 0.18; Growth Rate (HEK-293T; 24 h, replicate number 1): 0.15 |
| C1=Cc2ccccc2C(=C2CCN(CCCCc3nn[nH]n3)CC2)c2ccccc21 | 0.4 |  |  | 0.89 |  | -0.99 |  |  |  |  |  | 0.42 |  |  |  | 0.94 | 0.94 |  |  |  | Growth Rate (HEK-293T; 6 h, replicate number 2): 0.78; Growth Rate (HEK-293T; 18 h, replicate number 1): 0.91 |
| Cc1nsc(Nc2cnc(C(F)(F)F)cn2)c1C(=O)Nc1ccc(O[C@H]2CCCN(CC(F)(F)F)C2)nc1 | 0.72 | 0.59 | 0.57 | 0.03 | 0.52 |  | -0.21 | -0.93 | -0.36 | -0.45 | -0.23 | -0.98 | 0.73 | 0.06 |  | -0.28 | -0.54 | -0.41 | -0.32 |  | Growth Rate (U2OS; 0 h, replicate number 2): 0.91; Growth Rate (U2OS; 12 h, replicate number 1): 0.39; Growth Rate (Fibroblast; 0 h, replicate number 1): -1; Growth Rate (Fibroblast; 12 h, replicate number 1): -0.43; Growth Rate (Fibroblast; 24 h, replicate number 2): -0.3; Growth Rate (HEK-293T; 6 h, replicate number 2): -0.6; Growth Rate (HEK-293T; 12 h, replicate number 1): -0.36; Growth Rate (HEK-293T; 18 h, replicate number 1): -0.3; Growth Rate (HEK-293T; 24 h, replicate number 1): -0.25 |
| CC(=O)c1ccc2c(c1)/C(=C(/NC1CCN(C)CC1)c1ccc3c(c1)OCO3)C(=O)N2 | 0.57 | 0.33 | 0.13 | 0.21 | 0.13 |  |  |  | 0.78 | 0.48 | 0.63 | -0.53 |  | 0.32 | 0.02 | -0.84 | -0.83 | -0.63 | -0.45 | 0.74 | Growth Rate (U2OS; 12 h, replicate number 1): 0.52; Growth Rate (Fibroblast; 24 h, replicate number 2): 0.37; Growth Rate (HEK-293T; 6 h, replicate number 2): -0.95; Growth Rate (HEK-293T; 12 h, replicate number 1): -0.7; Growth Rate (HEK-293T; 18 h, replicate number 1): -0.5; Growth Rate (HEK-293T; 24 h, replicate number 1): -0.37 |
| C[C@H](NC(=O)c1cc(Cl)ccc1Oc1ccc(F)cc1)c1ccc(C(=O)O)cc1 |  | 0.8 |  |  | 0.99 | -0.45 | 0.59 | -0.71 | 0.85 | 0.92 | 0.86 | -0.19 | 0.86 |  | 0.1 |  |  |  |  | 0.98 | Growth Rate (U2OS; 12 h, replicate number 1): 0.94 |
